{
  "source": "paper PMC4519959",
  "about": "“Baicalin Protects Mice from Aristolochic Acid I-Induced Kidney Injury by Induction of CYP1A through the Aromatic Hydrocarbon Receptor” (International Journal of Molecular Sciences, 2015)",
  "key": {"CYP1A2 [1]": {"test_system": "CYP1A2", "test": "Screening of herbal compounds for CYP1A2 induction in Fa2N-4 cells (mRNA, real-time PCR)", "assay_type": "cell-based, human", "conditions": "10 μM, compared among seven herbal compounds", "protocol": "To screen CYP1A2 inducers, Fa2N-4 cells, a non-tumorigenic immortalized human hepatic cell line, were treated with seven different herbal compounds.\nFigure 1 Screening of herbal compounds for their activities in inducing CYP1A2 in Fa2N-4 cells. Cells were pre-treated with candidate compounds at 10 μM. CYP1A2 mRNA was quantified by real-time PCR. con: control (negative control); 1: omeprazole (positive control); 2: kaempferide; 3: catalpol; 4: isorhamnetin; 5: ferulic acid; 6: ligustrazine; 7: astragaloside; 8: baicalin. *** p < 0.001 versus the negative control.\n(§1) The immortalized hepatocyte cell line Fa2N-4 (Xenotech, Kansas City, KS, USA) was maintained in BEGM Bullet kit medium with 10% heat inactivated fetal bovine serum (FBS) and 1% antibiotic-antimycotic solution (Invitrogen, Carlsbad, CA, USA) at 37 °C in a humidified atmosphere of 95% air and 5% CO2. Fa2N-4 cells were plated in 6-well plates to achieve ~80% confluence next day. Cells were collected at 24 h after treatment with vehicle or baicalin (0–100 μM) in the presence or absence of 3ʹ,4ʹ-DMF (2 μM)."}, "AAI-induced renal damage": {"test_system": "AAI-induced renal damage", "test": "AAI nephrotoxicity in mice (serum BUN, CRE, kidney H&E histopathology)", "assay_type": "in vivo, C57BL/6 mice", "excerpt": "Mice were pretreated with baicalin for three days.\nFigure 2 Effects of baicalin on aristolochic acid I (AAI) nephrotoxicity. Blood samples were collected to obtain serum for the measurement of blood urea nitrogen (BUN) (A) and creatinine (CRE) (B); (C) Kidneys were collected to perform hematoxylin and eosin (H&E) staining. Arrowheads, tubular dilation; stars, tubular necrosis and granular casts. Scale bar, 100 μm.\nMale C57BL/6 mice (6–7 weeks old, 20–22 g) were obtained from Shanghai Laboratory Animal Center. All animal experiments were approved by the Shanghai Animal Care and Use Committee (Certificate No. SCXK [Shanghai] 2002-0010). […] Each group received different treatments as defined in Figure 7. Blood and liver tissues were collected and stored at −80 °C until use. Serum blood urea nitrogen (BUN) and creatinine (CRE) were measured by an automatic HITACHI Clinical Analyzer Model 7080 (Hitachi, Tokyo, Japan).\nKidneys were collected at the indicated time points and fixed in 10% formalin solution before being embedded in paraffin for sectioning into 5-μm-thick sections. Sections were stained with hematoxylin and eosin (H&E) using standard pathology procedures and evaluated by a pathologist as described previously."}, "[2]": {"test": "Pharmacokinetics of AAI and AAIa in mouse plasma (HPLC)", "assay_type": "in vivo, C57BL/6 mice", "conditions": "for AUC / Cmax / Tmax / t1/2: AAI in mouse plasma", "excerpt": "AAIa is the major metabolite of AAI oxidative metabolism by CYP1A. We studied the pharmacokinetics of AAI and its metabolites in vivo. […] Simultaneously, the level of AAIa, the major metabolite of AAI, was higher in the plasma of the baicalin-pretreated group than that in the AAI group (Figure 3B).\n(§2) Figure 3 Levels of AAI and its major metabolite AAIa in the plasma, liver, and kidney. Blood samples were collected from mice at the indicated time points after AAI injection. Plasma levels of AAI (A) and AAIa (B) were measured by high-performance liquid chromatography (HPLC); Tissue samples from mice were collected at 30 min after AAI injection to determine the levels of AAI (C) and AAIa (D).\n(§3) Blood samples (40 μL each) were collected in heparin-coated capillaries and mixed with 50 μL saline. The samples were spun at 3000× g for 10 min at 4 °C. Tissue samples were homogenized in saline and spun at 14,000× g for 10 min, and the supernatants were then mixed with 100 μg/mL (final concentration) indomethacin (internal standard, IS) and 2 volumes of methanol and spun again at 14,000× g for 5 min to remove precipitated proteins. Aliquots of the final supernatants were analyzed and quantified for the levels of AAI and its metabolite AAIa by high-performance liquid chromatography (HPLC), as described below.\nThe quantification of AAI and its metabolite AAIa was carried out with a Waters 9625 HPLC system (Sunnyvale, CA, USA). For AAI, the linear ranges of the calibration curves were 0–100 μg/mL in the plasma, liver, and kidney, the regression equations were y = 32.186x + 1.1609 (r^2 = 0.9992), y = 38.261x − 1.2753 (r^2 = 0.9688), and y = 80.334x + 1.7436 (r^2 = 0.9987), respectively, where y is the peak area and x is the concentration of the analyte. The identity of AAIa was confirmed with synthesized standards provided by Minghua Xu (Shanghai Institute of Materia Medica, Shanghai, China)."}, "[3]": {"test": "Levels of AAI and AAIa in mouse liver and kidney (HPLC)", "assay_type": "in vivo, C57BL/6 mice", "conditions": "baicalin pretreatment; 30 min after AAI 10 mg/kg i.p.; versus AAI group", "protocol": "as §2\nTo examine whether the change in pharmacokinetics of AAI upon baicalin pretreatment was due to changes in the tissue distribution of AAI, the levels of AAI and AAIa in the livers and kidneys were measured by HPLC.\nas §3\nThe quantification of AAI and its metabolite AAIa was carried out with a Waters 9625 HPLC system (Sunnyvale, CA, USA). […]"}, "CYP1A1 [4]": {"test_system": "CYP1A1", "test": "CYP1A1 mRNA and protein expression in Fa2N-4 cells (real-time PCR, Western blot)", "assay_type": "cell-based, human", "conditions": "24 h", "protocol": "as §1"}, "CYP1A1 [5]": {"test_system": "CYP1A1", "test": "Hepatic CYP1A1 mRNA and protein expression in mice", "assay_type": "in vivo, mouse", "conditions": "baicalin 80 mg/kg daily for 3 days"}, "[6]": {"test_system": "X1 (+1 to −2867 of CYP1A1) segment of the CYP1A promoter", "test": "Luciferase reporter assay pGL4.10-X1 in HepG2 cells", "assay_type": "cell-based, human", "conditions": "baicalin 1, 10 or 50 μM, BNF 50 μM, normalized to renilla luciferase", "excerpt": "(§4) Two pGL4.10 luciferase plasmids containing X1 (+1 to −2867 of CYP1A1) and X2 (−21,148 to −24,409 of CYP1A1; Figure 6A) segments were transfected into HepG2 cells to investigate the effects of baicalin.\n(§5) Figure 6 Effects of baicalin on the AhR-mediated activation of different segments of the CYP1A promoter in HepG2 cells. (A) Location of two insert segments, X1 and X2; and (B) Effects of baicalin and BNF on the luciferase activity of pGL4.10-X1; (C) Effects of baicalin and BNF on the luciferase activity of pGL4.10-X2. Luciferase activity was determined by firefly luciferase assay with data normalized to renilla luciferase activity. The results are expressed as the activity in drug treatment groups relative to that of the vehicle control. Each value is expressed as the mean ± SD. * p < 0.05, ** p < 0.01, *** p < 0.001 versus the plasmid only group. […]\n(§6) HepG2 cells were seeded at a density of 1.0 × 10^5 cells/mL in 6-well plates to achieve ~50% confluence the next day and were then transfected with pGL4.10-X1/2 plasmids using Lipofectamine 2000 (Invitrogen). […] Thereafter, cells were collected and further assayed for firefly luciferase activity, which was normalized to the activity of renilla luciferase, using the Dual-Luciferase Reporter Assay System (Promega, Madison, WI, USA) and a Biotek Synergy 4 Microplate reader (Biotek, Winooski, VT, USA). […]"}, "[7]": {"test_system": "X2 (−21,148 to −24,409 of CYP1A1) segment of the CYP1A promoter", "test": "Luciferase reporter assay pGL4.10-X2 in HepG2 cells", "assay_type": "cell-based, human", "conditions": "baicalin 1, 10 or 50 μM, BNF 50 μM, normalized to renilla luciferase", "excerpt": "as §4, §5, §6"}, "CYP1A2 [8]": {"test_system": "CYP1A2", "conditions": "mice"}, "CYP1A2 [9]": {"test_system": "CYP1A2", "assay_type": "cell-based, human", "conditions": "Fa2N-4 cells, DMF 2 μM with baicalin, 24 h", "protocol": "as §1"}, "[10]": {"conditions": "baicalin 80 or 160 mg/kg daily for 3 days, then AAI 10 mg/kg i.p. on day 4, versus AAI only"}, "[11]": {"conditions": "baicalin pretreatment, then AAI 10 mg/kg i.p., versus AAI group"}, "[12]": {"conditions": "AAI 10 mg/kg i.p. after baicalin 80 mg/kg daily for 3 days"}, "[13]": {"conditions": "AAI 10 mg/kg i.p. after baicalin 160 mg/kg daily for 3 days"}},
  "data": [
    {"smiles": "O=C(O)[C@H]1O[C@@H](Oc2cc3oc(-c4ccccc4)cc(=O)c3c(O)c2O)[C@H](O)[C@@H](O)[C@@H]1O", "note": "[baicalin]", "values": [
      {"measurement": "CYP1A2 gene expression at the mRNA level (induction)", "setting": "CYP1A2 [1]", "result": "most potent compound in inducing CYP1A2 gene expression"},
      {"measurement": "blood urea nitrogen (BUN) induced by AAI", "setting": "AAI-induced renal damage; [10]", "result": "significantly reduced"},
      {"measurement": "creatinine (CRE) induced by AAI", "setting": "AAI-induced renal damage; [10]", "result": "significantly reduced"},
      {"measurement": "kidney lesions (H&E histopathology)", "setting": "AAI-induced renal damage; baicalin pretreatment for 3 days, then AAI 10 mg/kg i.p., versus AAI group", "result": "fewer lesions"},
      {"measurement": "effect of pretreatment on the level of AAI in mice (plasma, AUC)", "setting": "[2]; [11]", "result": "markedly decreased"},
      {"measurement": "effect of pretreatment on the level of AAIa in the plasma", "setting": "[2]; [11]", "result": "higher"},
      {"measurement": "effect of pretreatment on the level of AAI in livers and kidneys", "setting": "[3]", "result": "reduced levels"},
      {"measurement": "effect of pretreatment on the level of AAIa in livers and kidneys", "setting": "[3]", "result": "reduced levels"},
      {"measurement": "CYP1A1 expression at mRNA and protein level", "setting": "CYP1A1 [4]; 100 μM", "result": "increased"},
      {"measurement": "CYP1A1 expression", "setting": "CYP1A1 [4]; 10 or 50 μM", "result": "relatively mild effect"},
      {"measurement": "CYP1A1 expression in the liver at mRNA and protein level", "setting": "CYP1A1 [5]", "result": "pronouncedly increased"},
      {"measurement": "luciferase activity of pGL4.10-X1 relative to vehicle control", "setting": "[6]", "result": "increased the luciferase activity"},
      {"measurement": "luciferase activity of pGL4.10-X2 relative to vehicle control", "setting": "[7]", "result": "increased the luciferase activity"},
      {"measurement": "CYP1A2 expression in the liver at mRNA and protein level", "setting": "CYP1A2 [8]; baicalin 80 mg/kg daily for 3 days", "result": "pronouncedly increased"}
    ]},
    {"smiles": "COc1cccc2c1cc([N+](=O)[O-])c1c(C(=O)O)cc3c(c12)OCO3", "note": "[AAI, aristolochic acid I]", "values": [
      {"measurement": "kidney lesions (H&E histopathology)", "setting": "AAI-induced renal damage; AAI 10 mg/kg i.p., seven days after AAI administration", "result": "extensive tubular necrosis, and tubular dilation"},
      {"measurement": "AUC", "setting": "[2]; [12]", "result": "759.39 ± 23.26 ** min·μg/mL"},
      {"measurement": "Cmax", "setting": "[2]; [12]", "result": "4430 ± 240", "unit": "ng/mL"},
      {"measurement": "Tmax", "setting": "[2]; [12]", "result": "10.00 ± 0", "unit": "min"},
      {"measurement": "t1/2", "setting": "[2]; [12]", "result": "77.96 ± 6.84", "unit": "min"},
      {"measurement": "AUC", "setting": "[2]; [13]", "result": "710.07 ± 33.95 *** min·μg/mL"},
      {"measurement": "Cmax", "setting": "[2]; [13]", "result": "3890 ± 430", "unit": "ng/mL"},
      {"measurement": "Tmax", "setting": "[2]; [13]", "result": "9 ± 2.24", "unit": "min"},
      {"measurement": "t1/2", "setting": "[2]; [13]", "result": "80.83 ± 3.02", "unit": "min"},
      {"measurement": "AUC", "setting": "[2]; AAI 10 mg/kg i.p., no baicalin", "result": "844.96 ± 40.12", "unit": "µg·min/mL"},
      {"measurement": "Cmax", "setting": "[2]; AAI 10 mg/kg i.p., no baicalin", "result": "4990 ± 410", "unit": "ng/mL"},
      {"measurement": "Tmax", "setting": "[2]; AAI 10 mg/kg i.p., no baicalin", "result": "10.00 ± 0", "unit": "min"},
      {"measurement": "t1/2", "setting": "[2]; AAI 10 mg/kg i.p., no baicalin", "result": "78.68 ± 12.88", "unit": "min"}
    ]},
    {"smiles": "COc1ccc(-c2cc(=O)c3ccccc3o2)cc1OC", "note": "[DMF, 3ʹ,4ʹ-dimethoxyflavone, reference compound]", "values": [
      {"measurement": "effect on baicalin-induced CYP1A2 expression", "setting": "CYP1A2 [9]", "result": "abolished"},
      {"measurement": "effect on baicalin-induced CYP1A1 expression", "setting": "CYP1A1 [4]; DMF 2 μM with baicalin", "result": "abolished"}
    ]},
    {"smiles": "O=c1cc(-c2ccccc2)oc2ccc3ccccc3c12", "note": "[BNF, β-Naphthoflavone, reference compound]", "values": [
      {"measurement": "luciferase activity of pGL4.10-X1 relative to vehicle control", "setting": "[6]", "result": "increased the luciferase activity"},
      {"measurement": "luciferase activity of pGL4.10-X2 relative to vehicle control", "setting": "[7]", "result": "increased the luciferase activity"}
    ]},
    {"smiles": "Oc1ccc(/C=C/c2cc(O)cc(O)c2)cc1", "note": "[RES, resveratrol, reference compound]", "values": [
      {"measurement": "effect on induction of hepatic CYP1A2 by baicalin", "setting": "CYP1A2 [8]; RES 50 mg/kg with baicalin 80 mg/kg daily for 3 days", "result": "pronouncedly attenuated"}
    ]}
  ]
}
